Data as given in EP4759805A1, “NLRP3 INFLAMMASOME INHIBITOR AND USE THEREOF” (NEUROCRINE BIOSCIENCES, INC., priority 2023, dated 2025).

biological target: T1, NLRP3 inflammasome (Homo sapiens, UniProt Q96P20); test: Cell assay of inhibitory activity against NLRP3 inflammasome in THP-1 cells (LPS/nigericin stimulation, caspase-1 glo readout); format: cell-based; conditions: PMA-differentiated THP-1 cells; LPS 500 ng/ml 3 h, compound 1 h, nigericin 10 µg/ml 30 min; active caspase-1 in supernatant
T1 construct: endogenous in cells; host or cells: THP-1 cells (PMA-differentiated, LPS-primed, nigericin-stimulated)
Experimental: Experimental Example 1: Cell assay of inhibitory activity of the compounds of the present disclosure against NLRP3 inflammasome
Test compounds: the compounds of the present disclosure prepared in accordance with the methods described in the Examples
THP-1 was an immortalized human macrophage cell line.
Test instrument: Microplate reader (manufactured by PE)
• 1. THP-1 cells were cultured in 1640 complete medium (500 ml 1640+56 ml FBS+560 µl 1000× P/S+2 µl mercaptoethanol), and used within 3 to 20 passages. • 2. Coating of culture plates: 100 µl of polylysine solution was added into a 96-well cell culture plate and incubated at 37°C for 30min. The solution was discarded, and the plate was washed twice with PBS for later use. • 3. Induction of differentiation of THP-1: THP-1 cells were resuspended in an appropriate amount of complete medium containing 10 ng/ml PMA to achieve a cell density of 5×10^5 cells /ml in the suspension. The cell suspension was added into a 96-well plate with 100 µl of cell suspension per well, and the 96-well plate was cultured overnight for 16 hours in a 37°C CO2 cell incubator. • 4. Stimulation of THP-1: • a. Serum-free THP-1 culture medium containing LPS was added to achieve a final concentration of 500 ng/ml, and the resultant was cultured in a 37°C CO2 cell incubator for 3h; • b. The compounds to be tested were prepared into stock solutions at gradient concentrations with DMSO. The resulting solutions were added to the cells, evenly mixed, and finally diluted at 1:1000. The 96-well plate was cultured in a 37°C CO2 cell incubator for 1h. • c. Nigericin was added to each well to achieve a final concentration of 10 µg/ml, and the resultant was cultured in a 37°C CO2 cell incubator for 30 min. • d. The resulting culture medium in each well was transferred to a new culture plate, which was then centrifuged at 3000 rpm for 5min. Afterwards, the supernatant was transferred to a new 96-well plate. • e. The collected supernatant samples of the cell culture medium were determined by using a commercial caspase-1 glo kit, and the content of human active caspase-1 was determined according to the manufacturer's instructions.

T1 sequence (Q96P20 whole entry): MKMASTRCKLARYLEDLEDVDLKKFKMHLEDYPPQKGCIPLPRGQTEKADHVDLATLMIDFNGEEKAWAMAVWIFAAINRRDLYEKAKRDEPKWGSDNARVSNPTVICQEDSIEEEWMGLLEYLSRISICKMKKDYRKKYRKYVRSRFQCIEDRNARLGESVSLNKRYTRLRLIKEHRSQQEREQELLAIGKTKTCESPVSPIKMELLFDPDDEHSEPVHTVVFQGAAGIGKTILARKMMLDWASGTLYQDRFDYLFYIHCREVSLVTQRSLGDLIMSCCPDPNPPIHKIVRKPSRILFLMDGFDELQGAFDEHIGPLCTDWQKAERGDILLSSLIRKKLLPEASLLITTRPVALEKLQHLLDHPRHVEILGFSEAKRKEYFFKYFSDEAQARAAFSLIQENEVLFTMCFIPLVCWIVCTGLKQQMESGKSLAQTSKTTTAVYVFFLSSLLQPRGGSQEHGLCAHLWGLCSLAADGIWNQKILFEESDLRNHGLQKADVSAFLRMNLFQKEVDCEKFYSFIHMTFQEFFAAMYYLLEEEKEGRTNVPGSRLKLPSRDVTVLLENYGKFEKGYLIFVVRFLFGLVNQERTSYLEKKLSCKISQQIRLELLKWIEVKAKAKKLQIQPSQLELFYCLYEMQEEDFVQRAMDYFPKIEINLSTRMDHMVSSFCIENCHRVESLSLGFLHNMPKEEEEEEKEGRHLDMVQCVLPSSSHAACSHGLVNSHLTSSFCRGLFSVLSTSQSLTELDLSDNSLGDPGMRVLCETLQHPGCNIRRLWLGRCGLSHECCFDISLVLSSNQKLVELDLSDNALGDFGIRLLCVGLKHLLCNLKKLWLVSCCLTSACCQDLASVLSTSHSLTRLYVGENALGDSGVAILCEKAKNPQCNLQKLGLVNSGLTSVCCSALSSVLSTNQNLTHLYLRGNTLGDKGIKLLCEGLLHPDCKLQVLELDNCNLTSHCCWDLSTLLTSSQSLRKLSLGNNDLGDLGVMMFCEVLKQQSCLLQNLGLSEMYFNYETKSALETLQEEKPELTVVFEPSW

**Q.** Which IC50 does the source give for C#Cc1ccc(-c2nnc(NC(=O)[C@H](N)Cc3ccccc3)cc2C2CC2)c(O)c1 [Compound 52, (R)-2-amino-N-(5-cyclopropyl-6-(4-ethynyl-2-hydroxyphenyl)pyridazin-3-yl)-3-phenylpro panamide] here?
**A.** The IC50 was 0.0129 µM.

**Q.** For CNCC(=O)Nc1nnc(-c2ccc(C(F)(F)F)cc2O)c(C2CC2)n1 [Compound 60, N-(5-cyclopropyl-6-(2-hydroxy-4-(trifluoromethyl)phenyl)-1,2,4-triazin-3-yl)-2-(methylamino)acetamide], which IC50 is on record?
**A.** Its IC50 is 0.0321 µM.

**Q.** For CNCC(=O)Nc1cc(C2CCC2)c(-c2ccc(C(F)(F)F)cc2O)nn1 [Compound 61, N-(5-cyclobutyl-6-(2-hydroxy-4-(trifluoromethyl)phenyl)pyridazin-3-yl)-2-(methylamino) acetamide], which IC50 is on record?
**A.** The IC50 was 0.0062 µM.

**Q.** With C#Cc1ccc(-c2nnc(NC(=O)[C@H](N)[C@@H](C)O)cc2C2CC2)c(O)c1 [Compound 59, (2R,3R)-2-amino-N-(5-cyclopropyl-6-(4-ethynyl-2-hydroxyphenyl)pyridazin-3-yl)-3-hydro xybutanamide] as the molecule, how does the IC50 read?
**A.** The IC50 was 0.0323 µM.

**Q.** C#Cc1ccc(-c2nnc(NC(=O)[C@@H](C)N)cc2C(C)C)c(O)c1 [Compound 66, (R)-2-amino-N-(6-(4-ethynyl-2-hydroxyphenyl)-5-isopropylpyridazin-3-yl)propanamide] was tested. Which IC50 did it give?
**A.** The IC50 was 0.0139 µM.

**Q.** How did the IC50 turn out when C#Cc1ccc(-c2nnc(NC(=O)CNC(C)C)cc2C)c(O)c1 [Compound 3, N-(6-(4-ethynyl-2-hydroxyphenyl)-5-methylpyridazin-3-yl)-2-(isopropylamino)acetamide] was run?
**A.** The IC50 was 0.0324 µM.

**Q.** How did the IC50 turn out when C#Cc1ccc(-c2nnc(NC(=O)[C@H]3CCCN3)cc2C2CC2)c(O)c1 [Compound 43, (R)-N-(5-cyclopropyl-6-(4-ethynyl-2-hydroxyphenyl)pyridazin-3-yl)pyrrolidine-2-carboxamide] was run?
**A.** Its IC50 is 0.0214 µM.

**Q.** C#Cc1ccc(-c2nnc(NC(=O)CNCC3CC3)cc2C)c(O)c1 [Compound 34, N-(6-(4-ethynyl-2-hydroxyphenyl)-5-methylpyridazin-3-yl)-2-((cyclopropylmethyl)amino) acetamide] was tested. Which IC50 did it give?
**A.** Its IC50 is 0.0188 µM.

**Q.** For C#Cc1ccc(-c2nnc(NC(=O)CNCC)cc2C)c(O)c1 [Compound 2, N-(6-(4-ethynyl-2-hydroxyphenyl)-5-methylpyridazin-3-yl)-2-(ethylamino)acetamide], which IC50 is on record?
**A.** Its IC50 is 0.0181 µM.

**Q.** With C#Cc1ccc(-c2nnc(NC(=O)CNC(C)C)cc2C2CC2)c(O)c1 [Compound 9, N-(5-cyclopropyl-6-(4-ethynyl-2-hydroxyphenyl)pyridazin-3-yl)-2-(isopropylamino)acetamide] as the molecule, how does the IC50 read?
**A.** The IC50 was 0.0097 µM.

**Q.** Which IC50 does the source give for C#Cc1ccc(-c2nnc(NC(=O)[C@@H](C)NC)cc2C2CC2)c(O)c1 [Compound 36, (R)-N-(5-cyclopropyl-6-(4-ethynyl-2-hydroxyphenyl)pyridazin-3-yl)-2-(methylamino)prop anamide] here?
**A.** The IC50 was 0.0029 µM.

**Q.** Which IC50 does the source give for CNCC(=O)Nc1cc(C2CC2)c(-c2ccc(Cl)cc2O)nn1 [Compound 67, N-(6-(4-chloro-2-hydroxyphenyl)-5-cyclopropylpyridazin-3-yl)-2-(methylamino)acetamide] here?
**A.** The IC50 was 0.0056 µM.

**Q.** For C#Cc1ccc(-c2nnc(NC(=O)[C@@H](C)N)cc2C2CCC2)c(O)c1 [Compound 65, (R)-2-amino-N-(5-cyclobutyl-6-(4-ethynyl-2-hydroxyphenyl)pyridazin-3-yl)propanamide], which IC50 is on record?
**A.** Its IC50 is 0.0315 µM.

**Q.** For C#Cc1ccc(-c2nnc(NC(=O)CNC)cc2C2CC2)c(O)c1 [Compound 7, N-(5-cyclopropyl-6-(4-ethynyl-2-hydroxyphenyl)pyridazin-3-yl)-2-(methylamino)acetamide], which IC50 is on record?
**A.** The IC50 was 0.0013 µM.

**Q.** How did the IC50 turn out when C#Cc1ccc(-c2nnc(NC(=O)[C@H](N)[C@H](C)O)cc2C2CC2)c(O)c1 [Compound 57, (2R, 3S)-2-amino-N-(5-cyclopropyl-6-(4-ethynyl-2-hydroxyphenyl)pyridazin-3-yl)-3-hydroxyb utanamide] was run?
**A.** The IC50 was 0.0175 µM.

**Q.** How did the IC50 turn out when C#Cc1ccc(-c2nnc(NC(=O)CNC3CCC3)cc2C)c(O)c1 [Compound 31, N-(6-(4-ethynyl-2-hydroxyphenyl)-5-methylpyridazin-3-yl)-2-(cyclobutylamino)acetamide] was run?
**A.** The IC50 was 0.0131 µM.

**Q.** With C[C@@H](N)C(=O)Nc1cc(C2CCC2)c(-c2ccc(C(F)(F)F)cc2O)nn1 [Compound 63, (R)-2-amino-N-(5-cyclobutyl-6-(2-hydroxy-4-(trifluoromethyl)phenyl)pyridazin-3-yl)prop anamide] as the molecule, how does the IC50 read?
**A.** The IC50 was 0.0072 µM.

**Q.** CNCC(=O)Nc1cc(C)c(-c2ccc(C(F)(F)F)cc2O)nn1 [Compound 17, N-(6-(2-hydroxy-4-(trifluoromethyl)phenyl)-5-methylpyridazin-3-yl)-2-(methylamino)acet amide] was tested. Which IC50 did it give?
**A.** Its IC50 is 0.0178 µM.

**Q.** For C#Cc1ccc(-c2nnc(NC(=O)[C@H](N)C(C)C)cc2C2CC2)c(O)c1 [Compound 56, (R)-2-amino-N-(5-cyclopropyl-6-(4-ethynyl-2-hydroxyphenyl)pyridazin-3-yl)-3-methylbut anamide], which IC50 is on record?
**A.** The IC50 was 0.0071 µM.

**Q.** C[C@@H](N)C(=O)Nc1cc(C2CC2)c(-c2ccc(C(F)(F)F)cc2O)nn1 [Compound 50, (R)-2-amino-N-(5-cyclopropyl-6-(2-hydroxy-4-(trifluoromethyl)phenyl)pyridazin-3-yl)pro panamide] was tested. Which IC50 did it give?
**A.** Its IC50 is 0.0068 µM.

**Q.** How did the IC50 turn out when C#Cc1ccc(-c2nnc(NC(=O)[C@H](N)C3CC3)cc2C2CC2)c(O)c1 [Compound 53, (R)-2-amino-2-cyclopropyl-N-(5-cyclopropyl-6-(4-ethynyl-2-hydroxyphenyl)pyridazin-3-yl)acetamide] was run?
**A.** The IC50 was 0.0059 µM.

**Q.** With C#Cc1ccc(-c2nnc(NC(=O)CNC)cc2C(C)C)c(O)c1 [Compound 16, N-(6-(4-ethynyl-2-hydroxyphenyl)-5-isopropylpyridazin-3-yl)-2-(methylamino)acetamide] as the molecule, how does the IC50 read?
**A.** Its IC50 is 0.0085 µM.

**Q.** For C#Cc1ccc(-c2nnc(NC(=O)CN)cc2C2CC2)c(O)c1 [Compound 13, 2-amino-N-(5-cyclopropyl-6-(4-ethynyl-2-hydroxyphenyl)pyridazin-3-yl)acetamide], which IC50 is on record?
**A.** The IC50 was 0.0232 µM.

**Q.** For C#Cc1ccc(-c2nnc(NC(=O)CNC)cc2C2CCC2)c(O)c1 [Compound 62, N-(5-cyclobutyl-6-(4-ethynyl-2-hydroxyphenyl)pyridazin-3-yl)-2-(methylamino)acetamide], which IC50 is on record?
**A.** Its IC50 is 0.0209 µM.

**Q.** With CC(C)c1cc(NC(=O)[C@@H](C)N)nnc1-c1ccc(C(F)(F)F)cc1O [Compound 64, (R)-2-amino-N-(6-(2-hydroxy-4-(trifluoromethyl)phenyl)-5-isopropylpyridazin-3-yl)propa namide] as the molecule, how does the IC50 read?
**A.** Its IC50 is 0.0141 µM.

**Q.** For C#Cc1ccc(-c2nnc(NC(=O)[C@@H](C)N)cc2C2CC2)c(O)c1 [Compound 44, (R)-2-amino-N-(5-cyclopropyl-6-(4-ethynyl-2-hydroxyphenyl)pyridazin-3-yl)propanamide], which IC50 is on record?
**A.** The IC50 was 0.0064 µM.

**Q.** For C#Cc1ccc(-c2nnc(NC(=O)[C@H](N)COC)cc2C2CC2)c(O)c1 [Compound 51, (R)-2-amino-N-(5-cyclopropyl-6-(4-ethynyl-2-hydroxyphenyl)pyridazin-3-yl)-3-methoxyp ropanamide], which IC50 is on record?
**A.** Its IC50 is 0.0146 µM.

**Q.** How did the IC50 turn out when CNCC(=O)Nc1cc(C2CC2)c(-c2ccc(C(F)(F)F)cc2O)nn1 [Compound 20, N-(5-cyclopropyl-6-(2-hydroxy-4-(trifluoromethyl)phenyl)pyridazin-3-yl)-2-(methylamino)acetamide] was run?
**A.** The IC50 was 0.0003 µM.

**Q.** Which IC50 does the source give for C#Cc1ccc(-c2nnc(NC(=O)[C@H](N)CO)cc2C2CC2)c(O)c1 [Compound 55, (R)-2-amino-N-(5-cyclopropyl-6-(4-ethynyl-2-hydroxyphenyl)pyridazin-3-yl)-3-hydroxypr opanamide] here?
**A.** The IC50 was 0.0236 µM.

**Q.** With CNCC(=O)Nc1cc(C(C)C)c(-c2ccc(C(F)(F)F)cc2O)nn1 [Compound 19, N-(6-(2-hydroxy-4-(trifluoromethyl)phenyl)-5-isopropylpyridazin-3-yl)-2-(methylamino)a cetamide] as the molecule, how does the IC50 read?
**A.** Its IC50 is 0.0034 µM.

**Q.** Which IC50 does the source give for C#Cc1ccc(-c2nnc(NC(=O)[C@H](C)NC)cc2C2CC2)c(O)c1 [Compound 37, (S)-N-(5-cyclopropyl-6-(4-ethynyl-2-hydroxyphenyl)pyridazin-3-yl)-2-(methylamino)prop anamide] here?
**A.** Its IC50 is 0.0294 µM.

**Q.** How did the IC50 turn out when C#Cc1ccc(-c2nnc(NC(=O)CNC3CC3)cc2C2CC2)c(O)c1 [Compound 10, N-(5-cyclopropyl-6-(4-ethynyl-2-hydroxyphenyl)pyridazin-3-yl)-2-(cyclopropylamino)acet amide] was run?
**A.** The IC50 was 0.0192 µM.

**Q.** How did the IC50 turn out when C#Cc1ccc(-c2nnc(NC(=O)CNCC)cc2C2CC2)c(O)c1 [Compound 8, N-(5-cyclopropyl-6-(4-ethynyl-2-hydroxyphenyl)pyridazin-3-yl)-2-(ethylamino)acetamide] was run?
**A.** Its IC50 is 0.0014 µM.

**Q.** Which IC50 does the source give for C#Cc1ccc(-c2nnc(NC(=O)CNC)cc2C)c(O)c1 [Compound 1, N-(6-(4-ethynyl-2-hydroxyphenyl)-5-methylpyridazin-3-yl)-2-(methylamino)acetamide] here?
**A.** The IC50 was 0.0165 µM.
